These are literature values, as cited in publication PMC2864005 (Archives of biochemistry and biophysics, 2010).

This data set has as its system 3A4. Conditions: after an initial burst.

With `CCC(C)n1ncn(-c2ccc(N3CCN(c4ccc(OCC5COC(Cn6cncn6)(c6ccc(Cl)cc6Cl)O5)cc4)CC3)cc2)c1=O` (stereo not shown) [itraconazole], the Rate of metabolism is 0.0016 s⁻¹.
